From patent US8110544B2, “RasGAP derived peptide for selectively killing cancer cells” (Universite de Lausanne, priority 2003, dated 2012)

Assays:
Type in all cases: cell-based, human
[1] = tested on: HeLa, U2OS, H-Meso1, MCF-7, HaCat and HUV-EC-C cell lines; test: Cellular uptake of FITC-labelled peptide (epifluorescence of live cells); conditions: FITC-labelled peptide 20 μM
Experimental: The following cell lines (HeLa, U2OS, H-Meso1, MCF-7, HaCat and HUV-EC-C) were incubated 3 hours at 37° C., 5% CO2 in culture medium with 20 μM FITC-labelled TAT-RasGAP317-326 peptide and then washed three times with culture medium.
Fluorescein isothiocyanate (FITC)-labeling was performed on the sequence β-alanine-[…] (SEQ ID NO: 16) whose side chain Fmoc-protected amino acids were Arg(bpf), Lys(Boc), Gln(Trt), Trp(Boc), Thr(tBu), Asn(Trt), and Asp(OtBu). The peptide was synthesized stepwise on 0.2 mmol Rink Amide AM resin using Fmoc chemistry. The synthesis was monitored by ninhydrin test. After the coupling of β-alanine, the Fmoc group was removed with 20% piperidine in dimethylformamide (DMF). At this stage, a fluorescein group was conjugated to the N-terminus of peptide with FITC (5 fold excess over the substitution of the resin in 4 ml DMF and 1 ml N-ethyldiisopropylamine) to form the fluorescein-derivated peptide.
If a plasmid encoding amino acid 317-326 of RasGAP has the ability to enhance the ability of a drug to kill cancer cells, a synthetic peptide corresponding to the […] should also display this activity provided that it can penetrate cells. […] We first assessed the sensitivity of the cancer cell lines towards increasing concentrations of the three genotoxins (data not shown). […]

[2] = tested on: cancer cell lines (HeLa, U2OS, MCF-7, and H-Meso1); test: Genotoxin-induced apoptosis (pycnotic nuclei) in cancer cell lines with or without peptides; conditions: 20 μM peptide
Experimental: Four cancer cell lines (HeLa, U2OS, MCF-7, and H-Meso1) were plated in 6-wells plates and treated with the indicated concentrations of cisplatin, adriamycin and mitoxantrone in the absence or in the presence of either 20 μM MV-TAT48-57 Or TAT-RaSGAP317-326 peptides for 20 hours. The number of cells displaying pycnotic nucleus was then scored. The results correspond to the mean±standard deviation of three independent determinations. Asterisks denote significant differences between the genotoxin-treated cells incubated with TAT-RaSGAP317-326 and those left untreated or incubated with the HIV-TAT48-57 peptide (**, p<0.01; ***, p<0.001).
Apoptosis was determined by scoring the number of cells displaying pycnotic nuclei. Nuclei of live cells were labeled with Hoechst 33342 (10 μg/ml final concentration) for about 5 minutes and the cells were then analyzed (at least 400 cells per condition) using an inverted Leica DMIRB microscope equipped with fluorescence and transmitted light optics. Assessment of apoptosis was performed one day after the transfection or treatment of the cells. In experiment involving transfected cells, pEGFP-C1 was included in the transfection solution to label the transfected cells with GFP. In this case, the extent of apoptosis was assessed in the transfected cells only. […]

NFκB activity = test: NFκB firefly luciferase reporter assay in U2OS cells; conditions: 20 hours
Experimental: U2OS Cells (1×10^5) were plated in 6 well plates and transfected with 1 μg of a firefly luciferase reporter plasmid for NFκB activity and 0.1 μg of a plasmid encoding the Renilla luciferase. The cells were treated one day later with the indicated concentrations of cisplatin in the absence or in the presence of 20 μM HV-TAT48-57 or TAT-RaSGAP317-326 peptides during 20 hours. The data represent the firefly luciferase activity normalized to the Renilla luciferase activity and expressed as fold increase of the basal NFκB activity obtained in control untreated cells. The results correspond to the mean±standard deviation of three independent determinations. Asterisks denote significant differences between the indicated conditions (**, p<0.01; ***, p<0.001).
(§1) U2OS cells were transfected with 1 μg of a firefly luciferase reporter plasmid for NFκB activity, 0.1 μg of a plasmid encoding the Renilla luciferase, 0.5 μg of a GFP-expressing plasmid (to label the transfected cells), 1 μg of a plasmid encoding IκBαΔN2 that inhibit the NFκB pathway or with 1 μg an empty pcDNA3 vector. The cells were incubated one day later with increasing concentrations of cisplatin in the presence of 20 μM HIV-TAT48-57 or 20 μM TAT-RasGAP317-326 for an additional 20 hour period. The cells were then lysed and the NFκB activity assessed as described in panel A, except that the results were expressed as fold increase of the NFκB activity detected in cells incubated with the control HV-TAT48-57 peptide.
Luciferase assay was performed using the Dual-Luciferase® Reporter Assay from Promega (cat. no E1910). […] The firefly luciferase activity was recorded by mixing 20 μl of the lysate with 25 μl of the LARII Reagent and the Renilla luciferase activity was recorded by adding to the previous mix 25 μl of the Stop & Glo Reagent. For each measurement, light emission was quantified during 12 seconds using a Lumat LB 9501 luminometer (Berthold Technologies, Zurich, Switzerland).

U2OS cells = test: Apoptosis of transfected (GFP-positive) U2OS cells with or without IκBαΔN2; conditions: 20 μM peptide, IkBαΔN2 expressed, 20 hours
Experimental: as §1
Alternatively, the number of GFP-positive cells displaying pycnotic nucleus was determined. The results correspond to the mean±standard deviation of three independent determinations.
Apoptosis was determined by scoring the number of cells displaying pycnotic nuclei. Nuclei of live cells were labeled with Hoechst 33342 (10 μg/ml final concentration) for about 5 minutes and the cells were then analyzed (at least 400 cells per condition) using an inverted Leica DMIRB microscope equipped with fluorescence and transmitted light optics. […] In this case, the extent of apoptosis was assessed in the transfected cells only.

JNK = test: Western blot of phospho-JNK in U2OS cells; conditions: 20 μM peptide
Experimental: (§2) U2OS cells (2×10^5) were plated in 6 well plates and treated for the indicated periods of time with the indicated combinations of the HW-TAT48-57 or TAT-RasGAP317-326 peptides (at a 20 μM concentration) and cisplatin (at a 30 μM concentration). Positive controls for JNK and p38 activation were obtained following stimulation of the cells with 1 μg/ml anisomycine during 3 hours and with 0.5 M sorbitol for 30 min, respectively. The quantitations depicted under the Western blots were performed on the 12-hour bands and normalized against the positive controls. The results correspond to the mean±standard deviation of three independent experiments. […]

p38 MAPKs = test: Western blot of phospho-p38 in U2OS cells; conditions: 20 μM peptide
Experimental: as §2

GRKKRRQRRRGGWMWVTNLRTD [TAT-RasGAP317-326]
difference in translocation between non cancer cells and cancer cells ([1]; 3 hours): No difference in translocation
cellular uptake of the peptide ([1]; 3 hours at 37° C., four tumor and two non cancer cell lines): efficiently entered all these cell lines
enhancement of the ability of cisplatin, adriamycin and mitoxantrone to kill cancer cell lines ([2]; 20 hours, sub-lethal genotoxin concentrations): enhanced the ability of cisplatin, adriamycin, and mitoxantrone to kill the tested cancer cell lines
apoptosis induced in control conditions (no genotoxin) ([2]; cancer cell lines): did not, or only marginally, induce apoptosis in control conditions
NFkB activation in U2OS cells (single agent) (NFκB activity; 20 μM peptide or cisplatin): activated
NFkB activation with both cisplatin and peptide (NFκB activity; U2OS cells, cisplatin plus 20 μM peptide): additive activation of NFkB
potency to enhance cisplatin killing of U2OS cells in presence of NFkB inhibitor (U2OS cells): unaffected by the NFkB inhibitor
activation of JNK pathway by peptide alone (JNK): neither the control HIV-TAT48-57 peptide nor the TAT-RasGAP317-326 peptide activated these MAPK pathways
activation of p38 MAPK pathway by peptide alone (p38 MAPKs): neither the control HIV-TAT48-57 peptide nor the TAT-RasGAP317-326 peptide activated these MAPK pathways
